Measured values: patent US4479954A, “Piperazine substituted carboxamide derivatives, compositions and method of use” (Eisai Co., Ltd., priority 1981, dated 1984)
Structures can show the parent of a compound that is named as a salt. Where two headings read alike, the source gives them in different places.

Experiments:
sub-diabetic rats = test: Improvement of glucose tolerance in STZ sub-diabetic rats (Experiment 1); format: in vivo, Male Sprague-Dawley rats; details: for inhibition in vivo at 10 mg/kg / Improvement of glucose tolerance at 10 mg/kg: Rattus norvegicus; for inhibition in vivo at 10 mg/kg: 10 mg/kg oral, STZ sub-diabetic rats, relative to control group as 100%; for Improvement of glucose tolerance at 10 mg/kg: po
Method: Male Sprague-Dawley rats (weighing 300-350 g) were maintained on rat chow and water adlibitum in a constant temperature room (22°-24° C.) for at least a week prior to use in studies. Sub-diabetic rats*^1 were obtained by intrevenous injection of 20 mg/kg of streptozotocin (STZ). The compounds were orally administered in 5% gum arabic suspension in sub-diabetic rats. 3 g/kg of glucose was administered intraperitoneally an hour later. Blood samples were taken from the tail vein, and the blood sugar was measured by the anthrone method [Ui.
*1: STZ sub-diabetic rats are obtained by administering a low dose of streptozotocin (20 mg/kg) dissolved in physiological saline containing 1 mM citrate buffer (pH 4.5) into the superficial cutaneous vein.
*^2 The improvement percent of glucose tolerance means a percentage o
blood sugar of the group treated with the test compounds each after
glucose load (1, 2 and 3 hours after) relative to that of the control

DDY strain mice = test: Acute Toxicity Test, oral, mice (Experiment 2); format: in vivo; details: observation within one week; for Acute toxicity, number of dead cases / number of cases tested, 500 mg/kg: 500 mg/kg oral; for Acute toxicity, number of dead cases / number of cases tested, 1,000 mg/kg: 1,000 mg/kg oral
Method: More specifically, when an experiment was carried out in DDY strain mice, there was no case of death at a dosage of 1,000 mg/kg, as shown below.
DDY strain mice (weighing 20-25 g) maintained on mice chow and water adlibitum in a constant temperature room (22°-24° C.) for at least a week were used.
An acute toxicity test was carried out by oral administration of the compounds at two dosage levels of 500 mg/kg and 1,000 mg/kg. Observation of dead cases were made within one week. In table 2, the denominator of each value indicates the number of cases tested and the numerator indicates the number of dead cases. Compounds A, B, C, D, E and F correspond to Compoounds A-F in Experiment 1 respectively.

[1] = 1 hr. after glucose load (3 g/kg i.p.), read-out: Improvement percent of glucose tolerance, 1 hr.
[2] = 2 hrs. after glucose load (3 g/kg i.p.), read-out: Improvement percent of glucose tolerance, 2 hrs.
[3] = 3 hrs. after glucose load (3 g/kg i.p.), read-out: Improvement percent of glucose tolerance, 3 hrs.
[4] = 1 h, read-out: Improvement percent of glucose tolerance, 1 hr.
[5] = 2 h, read-out: Improvement percent of glucose tolerance, 2 hrs.
[6] = 3 h, read-out: Improvement percent of glucose tolerance, 3 hrs.

Structure (SMILES)	inhibition in vivo at 10 mg/kg (sub-diabetic rats; [1]) [%]	inhibition in vivo at 10 mg/kg (sub-diabetic rats; [2]) [%]	inhibition in vivo at 10 mg/kg (sub-diabetic rats; [3]) [%]	Acute toxicity, number of dead cases / number of cases tested, 500 mg/kg (DDY strain mice)	Acute toxicity, number of dead cases / number of cases tested, 1,000 mg/kg (DDY strain mice)	Improvement of glucose tolerance at 10 mg/kg (sub-diabetic rats; [4]) [%]	Improvement of glucose tolerance at 10 mg/kg (sub-diabetic rats; [5]) [%]	Improvement of glucose tolerance at 10 mg/kg (sub-diabetic rats; [6]) [%]	Improvement percent of glucose tolerance after 1 hour (sub-diabetic rats; 39 mg/kg, 6 rats, after 1 hour, method similar to Experiment 1) [%]	Improvement percent of glucose tolerance after 2 hours (sub-diabetic rats; 39 mg/kg, 6 rats, after 2 hours, method similar to Experiment 1) [%]	Improvement percent of glucose tolerance after 3 hours (sub-diabetic rats; 39 mg/kg, 6 rats, after 3 hours, method similar to Experiment 1) [%]
CCC(=O)OC(CN1CCN(c2ccccn2)CC1)CN1C(=O)c2ccccc2C1=O (stereo not drawn) [Compound I, N-[2-Propionyloxy-3-{4-(2-pyridyl)piperazin-1-yl}propyl]phthalimide maleate]	14	26	31	–	–	–	–	–	–	–	–
O=C(O)/C=C\C(=O)O.O=C(OC(CN1CCN(c2ccccn2)CC1)CN1C(=O)[C@H]2CC=CC[C@H]2C1=O)c1cccnc1 (relative stereo) [Compound E, N-[2-Nicotinoyloxy-3-{4-(2-pyridyl)piperazin-1-yl}propyl]cis-cyclohex-4-ene-1,2-dicarboximide maleate]	–	–	–	0/5	0/5	11	20	9	–	–	–
O=C(OC(CN1CCN(c2ccccn2)CC1)CN1C(=O)[C@@H]2[C@H](C1=O)[C@@H]1C=C[C@H]2C1)C1CCCCC1 (stereo partly drawn) [Example 7, N-[2-Cyclohexylcarbonyloxy-3-{4-(2-pyridyl)piperazin-1-yl}propyl]-endo-cis-bicyclo[2,2,1]hept-5-ene-2,3-dicarboximide dihydrochloride]	–	–	–	–	–	–	–	–	23	33	37
CCCCCCCCCC(=O)OC(CN1CCN(c2ccccn2)CC1)CN1C(=O)C2CC=CCC2C1=O (stereo not drawn) [Compound B, N-[2-n-Decanoyloxy-3-{4-(2-pyridyl)piperazin-1-yl}propyl]cis-cyclohex-4-ene-1,2-dicarboximide dimaleater]	15	23	26	0/5	0/5	–	–	–	–	–	–
O=C(OC(CN1CCN(c2ccccn2)CC1)CN1C(=O)c2ccccc2C1=O)c1cccnc1 (stereo not drawn) [Compound H, N-[2-Nicotinoyloxy-3-{4-(2-pyridyl)piperazin-1-yl}propyl]phthalimide maleate]	19	23	27	–	–	–	–	–	–	–	–
CCCCCC(=O)OC(CN1CCN(c2ccccn2)CC1)CN1C(=O)C2CC=CCC2C1=O (stereo not drawn) [Compound C, N-[2-n-Caproyloxy-3-{4-(2-pyridyl)piperazin-1-yl}propyl]cis-cyclohex-4-ene-1,2-dicarboximide dimaleate]	7	17	23	0/5	0/5	–	–	–	–	–	–
CCCCCC/C=C/C(=O)OC(CN1CCN(c2ccccn2)CC1)CN1C(=O)[C@H]2CC=CC[C@H]2C1=O.O=C(O)/C=C\C(=O)O.O=C(O)/C=C\C(=O)O (relative stereo) [Compound D, N-[2-(trans-2-Nonenoyloxy)-3-{4-(2-pyridyl)piperazin-1-yl}propyl]cis-cyclohex-4-ene-1,2-dicarboximide dimaleate]	–	–	–	0/5	0/5	0	13	26	–	–	–
CCCCCC(=O)OC(CN1CCN(C)CC1)CN1C(=O)C2CC=CCC2C1=O (stereo not drawn) [Compound J, N-{2-n-Caproyloxy-3-(4-methylpiperazin-1-yl)propyl}cis-cyclohex-4-ene-1,2-dicarboximide dimaleate]	0	21	32	–	–	–	–	–	–	–	–
CCCCCCCCCCCCCCCC(=O)OC(CN1CCN(c2ccccn2)CC1)CN1C(=O)[C@H]2CC=CC[C@H]2C1=O (relative stereo) [Compound G, N-[2-Palmitoyloxy-3-{4-(2-pyridyl)piperazin-1-yl}propyl]cis-cyclohex-4-ene-1,2-dicarboximide dimaleate]	3	15	24	–	–	–	–	–	–	–	–
O=C(OC(CN1CCN(c2ccccn2)CC1)CN1C(=O)[C@@H]2[C@H](C1=O)[C@@H]1C=C[C@H]2C1)C1CCCCC1 (stereo partly drawn) [Compound F, N-[2-Cyclohexylcarbonyloxy-3-{4-(2-pyridyl)piperazin-1-yl}propyl]endo-cis-bicyclo[2,2,1]hept-5-ene-2,3-dicarboximide dimaleate]	14	25	34	0/5	0/5	–	–	–	–	–	–
O=C(O)/C=C\C(=O)O.O=C(OC(CN1CCN(c2ccccn2)CC1)CN1C(=O)CCC1=O)C1CCCCC1 (stereo not drawn) [Compound A, N-[2-Cyclohexylcarbonyloxy-3-{4-(2-pyridyl)piperazin-1-yl}propyl]succinimide maleate]	–	–	–	0/5	0/5	12	25	19	–	–	–
